Test results from patent US10028961B2, “Therapeutically active compounds and their methods of use” (AGIOS PHARMACEUTICALS, INC., priority 2013, dated 2018).
pIC50: −log10 of the molar value.

What was measured:
[1] = biological target: IDH1 wt/IDH1 R132C heterodimer (Homo sapiens (Human), UniProt O75874, R132C); experiment: In vitro assay for IDH1m R132C inhibitors, IDH1 wt/IDH1 R132C heterodimer, NADPH depletion (diaphorase/resazurin); assay type: biochemical; settings: NADPH/NADP
Method: The following describes the experimental procedures that can be used to obtain data on columns 2 and 4 of Table 4 and column 2 of Table 5.
In the primary reaction, the reduction of α-KG acid to 2-HG is accompanied by a concomitant oxidation of NADPH to NADP. The amount of NADPH remaining at the end of the reaction time is measured in a secondary diaphorase/resazurin reaction in which the NADPH is consumed in a 1:1 molar ratio with the conversion of resazurin to the highly fluorescent resorufin.
The mixture of compound, enzyme, and cofactor is pre-incubated at room temperature for 1 hr prior to the addition of alpha-ketoglutarate. To perform the secondary reaction, 10 uL of 1× buffer containing 36 μg/ml diaphorase and […] resazurin is added to the primary reaction and incubated for a further 5 minutes at 25° C. Florescence is read on a Spectramax platereader at Ex 544 Em 590. Compounds or compound dilutions are prepared in 100% DMSO concentration and diluted 1:50 into the final reaction. […] IC50s are determined.
IDH1 or IDH2 wildtype (wt) and mutant heterodimers are expressed and purified by methods known in the art. For example, IDH1wt/R132m heterodimer is expressed and purified as follows. Co-expression of IDH1wt-his and IDH1R132C-flag is carried out in sf9 insect cells. Cells (25 g) are resuspended in 250 ml of 50 mM Tirs, 500 mM NaCl, pH7.4, at 4° C. with stirring. Cells are disrupted with 4 passes through an M-Y110 Micro fluidizer (Microfluidics) set to 500 psi, and then centrifuged at 22,000 rcf for 20 min at 4° C. The supernatant is harvested and loaded at 15 cm/h on a Histrap FF 5*1 ml column (GE) which is equilibrated with 50 mM Tirs, 500 mM NaCl, pH7.4. Host cell contaminants are removed by washing the column with equilibration buffer followed by equilibration buffer containing 20 mM imidazole and 60 mM imidazole to baseline. IDH1wt-his homodimer and IDH1wt-his/IDH1R132C-flag are eluted by equilibration buffer containing 250 mM imidazole. Fractions eluted by 250 mM imidazole are pooled together and loaded at 15 cm/h onto a column pre-packed with 10 ml ANTI-FLAG® M2 Affinity Gel (Sigma), the column is equilibrated with 50 mM Tris, 500 mM NaCl, pH7.4. After washing with equilibration buffer, IDH1wt-his/IDH1R132C-flag heterodimer is eluted by equilibration buffer containing flag peptide (0.2 mg/ml). Aliquots of IDH1wt-his/IDH1R132C-flag are flash frozen in liquid N2 and stored at −80° C. Same conditions are used for the purification of IDH1wt-his/IDH1R132H-flag.

HT1080 cells = experiment: Cellular assay for IDH1m R132C inhibitors, 2-HG by LC-MS in HT1080 cells; assay type: cell-based; settings: Homo sapiens, HT-1080
Procedure, shortened: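 2-HG levels were measured by LC-MS in culture medium sampled 48 h after compound addition (0.2% DMSO) to HT1080 cells seeded overnight at 5000 cells/well. A CellTiter-Glo luminescence read at 72 h gave cell viability.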

[2] = biological target: IDH1-R132H homodimer enzyme (Homo sapiens (Human), UniProt O75874, R132H); experiment: In vitro assay IDH1-R132H homodimer, NADPH depletion assay with NADPH/NADP preincubation; assay type: biochemical; settings: 5 μM NADPH and 37.5 μM NADP
IDH1-R132H homodimer enzyme, sequence (O75874 whole entry R132H): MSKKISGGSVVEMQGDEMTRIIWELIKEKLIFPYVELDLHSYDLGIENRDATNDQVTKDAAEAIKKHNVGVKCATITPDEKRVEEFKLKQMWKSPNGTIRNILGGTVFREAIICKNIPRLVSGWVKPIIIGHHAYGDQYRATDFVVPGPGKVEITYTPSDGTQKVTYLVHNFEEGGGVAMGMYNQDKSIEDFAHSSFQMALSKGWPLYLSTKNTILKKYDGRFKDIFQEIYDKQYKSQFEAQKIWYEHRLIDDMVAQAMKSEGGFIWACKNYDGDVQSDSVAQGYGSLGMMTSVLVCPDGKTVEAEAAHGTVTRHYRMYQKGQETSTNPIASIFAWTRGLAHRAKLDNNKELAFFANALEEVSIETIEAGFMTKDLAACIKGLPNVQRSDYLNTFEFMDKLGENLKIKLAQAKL
Procedure, shortened: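 Compounds were added from DMSO at 50× final concentration, and the mutant enzyme was incubated 60 min at room temperature after starting with a substrate mix holding NADPH and 5 mM alpha-ketoglutarate. Residual cofactor, read by fluorescence after excess diaphorase and resazurin, reflects enzyme turnover.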

IDH1 wt/IDH1 R132C heterodimer, sequence (O75874 whole entry R132C): as the sequence (O75874 whole entry R132H) above, with H132C counted along it
IDH1 wt/IDH1 R132C heterodimer, sequence (O75874 whole entry, stated change not applied): as the sequence (O75874 whole entry R132H) above, with H132R counted along it

pIC50 [1]	pIC50 (HT1080 cells)	pIC50 [2]	SMILES
> 7.30	> 7.30	> 7.30	CC(F)(F)c1cccc(-c2nc(NC3CCC(F)(F)C3)nc(NC3CCC(F)(F)C3)n2)n1 (centres unmarked) [Compound 105]
–	6.00 to 7.00	> 7.30	Fc1cc(F)cc(Nc2nc(NC3CC(F)(F)C3)nc(-n3ccc(C(F)(F)F)n3)n2)c1 [Compound 106]
> 7.30	6.00 to 7.00	> 7.30	FC1(F)CCC(Nc2nc(Nc3ccnc(C(F)(F)F)c3)nc(-c3cccc(Cl)n3)n2)C1 (centres unmarked) [Compound 115]
> 7.30	> 7.30	7.00 to 7.30	C[C@@H](Nc1nc(N[C@H](C)C2CC2)nc(-n2ccc(C(F)(F)F)n2)n1)C1CC1 [Compound 121]
> 7.30	6.00 to 7.00	> 7.30	Fc1cc(F)cc(Nc2nc(NC3CCC(F)(F)C3)nc(-c3cccc(C(F)(F)F)n3)n2)c1 (centres unmarked) [Compound 123]
> 7.30	–	> 7.30	N#Cc1cc(F)cc(Nc2nc(NC3CCC(F)(F)C3)nc(-c3cccc(C(F)(F)F)n3)n2)c1 (centres unmarked) [Compound 124]
> 7.30	–	7.00 to 7.30	FC1(F)CC(Nc2nc(NC3CC(F)(F)C3)nc(-n3ccc(C(F)(F)F)n3)n2)C1 [Compound 126]
> 7.30	> 7.30	> 7.30	FC1(F)CC(Nc2nc(NC3CC(F)(F)C3)nc(-c3nc(C(F)(F)F)cs3)n2)C1 [Compound 128]
> 7.30	–	7.00 to 7.30	Clc1cccc(-c2nc(NC(C3CC3)C3CC3)nc(NC(C3CC3)C3CC3)n2)n1 [Compound 131]
> 7.30	> 7.30	> 7.30	CC(Nc1nc(Nc2ccnc(C3(C#N)CC3)c2)nc(-c2cccc(Cl)n2)n1)C(F)(F)F (centres unmarked) [Compound 134]
> 7.30	6.00 to 7.00	> 7.30	FC(F)c1cccc(-c2nc(NC3CC(F)(F)C3)nc(NC3CC(F)(F)C3)n2)n1 [Compound 145]
> 7.30	–	> 7.30	FC1(F)CCC(Nc2nc(NC3CCC(F)(F)C3)nc(-n3ccc(C(F)(F)F)n3)n2)C1 (centres unmarked) [Compound 146]
> 7.30	6.00 to 7.00	7.00 to 7.30	FC1(F)CCC(Nc2nc(NC3CCC(F)(F)CC3)nc(-c3cncc(Cl)n3)n2)CC1 [Compound 147]
> 7.30	7.00 to 7.30	> 7.30	FC1(F)CC(Nc2nc(NC3CC(F)(F)C3)nc(-c3cccc(C(F)(F)F)n3)n2)C1 [Compound 149]
> 7.30	–	> 7.30	N#CC1(c2cc(Nc3nc(NC4CCC(F)(F)C4)nc(-c4cccc(C(F)(F)F)n4)n3)ccn2)CC1 (centres unmarked) [Compound 151]
–	> 7.30	7.00 to 7.30	FC1(F)CCC(Nc2nc(NC3CCC(F)(F)CC3)nc(-c3cncc(C(F)(F)F)n3)n2)CC1 [Compound 160]
–	> 7.30	> 7.30	FC1(F)CC(Nc2nc(NC3CC(F)(F)C3)nc(-c3cncc(C(F)(F)F)n3)n2)C1 [Compound 161]
> 7.30	–	> 7.30	CC(C)(C)Nc1nc(Nc2ccnc(C#N)c2)nc(-c2cccc(C(F)(F)F)n2)n1 [Compound 162]
> 7.30	–	7.00 to 7.30	N#Cc1cc(F)cc(Nc2nc(NC3CCC(F)(F)CC3)nc(-c3cccc(C(F)(F)F)n3)n2)c1 [Compound 164]
–	> 7.30	> 7.30	N#CC1(c2cc(Nc3nc(NC4CC(F)(F)C4)nc(-c4cccc(C(F)(F)F)n4)n3)ccn2)CC1 [Compound 168]
> 7.30	–	6.00 to 7.00	FC1(F)CC(Nc2nc(NC3CC(F)(F)C3)nc(-c3csc(C(F)(F)F)n3)n2)C1 [Compound 170]

pIC50 [1]	pIC50 (HT1080 cells)	pIC50 [2]	SMILES
> 7.30	6.00 to 7.00	6.00 to 7.00	FC1(F)CCC(Nc2nc(NC3CCC(F)(F)CC3)nc(-n3ccc(C(F)(F)F)n3)n2)CC1 [Compound 176]
> 7.30	6.00 to 7.00	> 7.30	N#Cc1cc(Nc2nc(NC3CCC(F)(F)C3)nc(-c3cccc(C(F)(F)F)n3)n2)ccn1 (centres unmarked) [Compound 181]
> 7.30	–	6.00 to 7.00	FC1(F)CCC(Nc2nc(NC3Cc4ccc(Cl)cc4C3)nc(-c3cccc(C(F)(F)F)n3)n2)C1 (centres unmarked) [Compound 182]
> 7.30	–	6.00 to 7.00	CC(F)(F)c1cccc(-c2nc(NC3CC(F)(F)C3)nc(NC3CC(F)(F)C3)n2)n1 [Compound 187]
> 7.30	6.00 to 7.00	6.00 to 7.00	N#CC1(c2cc(Nc3nc(NC4CCC(F)(F)CC4)nc(-c4cccc(C(F)(F)F)n4)n3)ccn2)CC1 [Compound 189]
> 7.30	–	6.00 to 7.00	Fc1ccc([C@H]2C[C@@H](Nc3nc(NC4CCC(F)(F)C4)nc(-c4cccc(C(F)(F)F)n4)n3)C2)cc1 (some centres unmarked) [Compound 199]
> 7.30	–	7.00 to 7.30	N#Cc1cc(Nc2nc(NC3CC(F)(F)C3)nc(-c3cccc(C(F)(F)F)n3)n2)ccn1 [Compound 213]
> 7.30	–	6.00 to 7.00	CC(CC#N)Nc1nc(N[C@H](C)C2CC2)nc(-c2cccc(C(F)(F)F)n2)n1 (some centres unmarked) [Compound 214]
7.00 to 7.30	–	6.00 to 7.00	FC1(F)CCC(Nc2nc(NC3CCN(c4ccccn4)C3)nc(-c3cccc(C(F)(F)F)n3)n2)C1 (centres unmarked) [Compound 222]
7.00 to 7.30	–	6.00 to 7.00	FC1(F)CCC(Nc2nc(NC3CCC(F)(F)CC3)nc(-c3csc(C(F)(F)F)n3)n2)CC1 [Compound 223]
7.00 to 7.30	–	6.00 to 7.00	N#CC1(c2cc(Nc3nc(NCC(F)(F)F)nc(-c4cccc(C(F)(F)F)n4)n3)ccn2)CC1 [Compound 226]
7.00 to 7.30	–	6.00 to 7.00	FC1(F)CCC(Nc2nc(NC3CCN(c4ncccn4)C3)nc(-c3cccc(C(F)(F)F)n3)n2)C1 (centres unmarked) [Compound 227]
7.00 to 7.30	–	6.00 to 7.00	CC(C)(C#N)Nc1nc(Nc2ccnc(C(C)(F)F)c2)nc(-c2cccc(C(F)(F)F)n2)n1 [Compound 247]
6.00 to 7.00	–	< 6.00	FC1(F)CCC(Nc2nc(NC3CCC(F)(F)C3)nc(-c3cccc(OC(F)(F)F)n3)n2)C1 (centres unmarked) [Compound 252]
6.00 to 7.00	–	6.00 to 7.00	CC(C#N)Nc1nc(Nc2ccnc(C(C)(F)F)c2)nc(-c2cccc(C(F)(F)F)n2)n1 (centres unmarked) [Compound 253]
7.00 to 7.30	–	< 6.00	FC1(F)CC(Nc2nc(NC3CC(F)(F)C3)nc(-c3nccc(C(F)(F)F)n3)n2)C1 [Compound 256]
7.00 to 7.30	–	< 6.00	N#CC1(c2cc(Nc3nc(NC4CCC(F)(F)C4)nc(-c4nccc(C(F)(F)F)n4)n3)ccn2)CC1 (centres unmarked) [Compound 261]
6.00 to 7.00	–	< 6.00	FC1(F)CCC(Nc2nc(NC3CCC(F)(F)CC3)nc(-c3nccc(C(F)(F)F)n3)n2)CC1 [Compound 293]
–	6.00 to 7.00	7.00 to 7.30	FC1(F)CCC(Nc2nc(Nc3ccnc(C(F)(F)F)c3)nc(-c3cncc(C(F)(F)F)n3)n2)CC1 [Compound 389]
–	6.00 to 7.00	7.00 to 7.30	FC1(F)CC[C@H](Nc2nc(Nc3ccnc(C(F)(F)F)c3)nc(-c3cncc(C(F)(F)F)n3)n2)C1 [Compound 391]
–	6.00 to 7.00	> 7.30	N#CC1(c2cc(Nc3nc(NC4CC(F)(F)C4)nc(-c4cncc(C(F)(F)F)n4)n3)ccn2)CC1 [Compound 401]

SMILES	pIC50 [1]	pIC50 (HT1080 cells)	pIC50 [2]
FC1(F)CCC(Nc2nc(NC3Cc4ccccc4C3)nc(-c3cccc(C(F)(F)F)n3)n2)C1 (centres unmarked) [Compound 152]	> 7.30	–	> 7.30
